Data: patent US11198713B2, “Agents modulating beta-catenin functions and methods thereof” (FOG PHARMACEUTICALS, INC., priority 2017, dated 2021)

target: T1, full-length beta-catenin (Axin site) (Homo sapiens, UniProt P35222); test: Competition fluorescence polarization assay (Axin site probe); assay type: binding; conditions: competition with FITC labeled Axin-site probe, 15 nM full-length beta-catenin; read-out: FP EC50
T1 construct: 15 nM full-length beta-catenin, 20 nM FITC labeled peptide in buffer
T1 sequence (P35222 1-781): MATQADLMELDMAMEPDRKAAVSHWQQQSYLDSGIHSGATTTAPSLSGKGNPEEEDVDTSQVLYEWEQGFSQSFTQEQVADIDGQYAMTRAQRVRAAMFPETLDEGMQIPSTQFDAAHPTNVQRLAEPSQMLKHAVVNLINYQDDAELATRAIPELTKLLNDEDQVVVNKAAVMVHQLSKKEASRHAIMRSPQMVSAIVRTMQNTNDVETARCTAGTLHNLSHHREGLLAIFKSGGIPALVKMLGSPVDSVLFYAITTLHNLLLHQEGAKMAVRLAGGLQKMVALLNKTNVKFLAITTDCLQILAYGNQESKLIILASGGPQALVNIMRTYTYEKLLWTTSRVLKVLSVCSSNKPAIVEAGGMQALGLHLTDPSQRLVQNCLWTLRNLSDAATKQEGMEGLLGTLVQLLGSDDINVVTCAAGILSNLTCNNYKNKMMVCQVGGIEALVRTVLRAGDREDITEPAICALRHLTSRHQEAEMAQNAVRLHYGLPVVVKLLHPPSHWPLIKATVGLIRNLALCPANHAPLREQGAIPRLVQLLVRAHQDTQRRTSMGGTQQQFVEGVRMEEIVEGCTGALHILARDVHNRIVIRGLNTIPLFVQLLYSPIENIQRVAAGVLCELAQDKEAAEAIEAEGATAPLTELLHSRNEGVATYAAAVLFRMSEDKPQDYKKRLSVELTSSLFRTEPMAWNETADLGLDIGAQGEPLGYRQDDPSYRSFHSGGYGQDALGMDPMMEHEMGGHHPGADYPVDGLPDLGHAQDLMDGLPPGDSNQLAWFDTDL
Outline: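 Competition FP: 15 nM full-length β-catenin pre-incubated 5 min with 20 nM FITC-labelled stapled Axin-site peptide, then titrated peptide added (3-fold series from 5 μM) for 15 min in the dark. Buffer 50 mM Tris pH 8.0, 250 mM NaCl, 2% glycerol, 0.5 mM EDTA; duplicate reads.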

Row | EC50 | Structure (SMILES)
1 | 580 nM | CC[C@H](C)[C@@H]1NC(=O)C2(NC(=O)[C@H](CCC(N)=O)NC(=O)[C@@H]3CCCN3C(C)=O)CN(CC=CCCCC[C@](C)(C(=O)N[C@@H](Cc3c[nH]cn3)C(=O)N[C@H](C(=O)N[C@@H](CCCNC(=N)N)C(=O)N[C@@H](CCCNC(=N)N)C(=O)N[C@H](C(=O)N[C@@H](Cc3c[nH]c4ccccc34)C(=O)N[C@@H](CCCNC(=N)N)C(N)=O)C(C)C)C(C)C)NC(=O)[C@H](CC(=O)O)NC(=O)[C@H](CC(C)C)NC1=O)C2 (single isomer, unassigned) [FP-0725, Ac-P-Q-Az-I-L-D-R6-H-V-R-R-V-W-R-NH2]
2 | > 5000 nM | CC[C@H](C)[C@@H]1NC(=O)[C@@](C)(NC(=O)[C@H](CCC(N)=O)NC(=O)[C@@H]2CCCN2C(C)=O)CCCC=CCN2CC(C(=O)N[C@@H](Cc3c[nH]cn3)C(=O)N[C@H](C(=O)N[C@@H](CCCNC(=N)N)C(=O)N[C@@H](CCCNC(=N)N)C(=O)N[C@H](C(=O)N[C@@H](Cc3c[nH]c4ccccc34)C(=O)N[C@@H](CCCNC(=N)N)C(N)=O)C(C)C)C(C)C)(C2)NC(=O)[C@H](CC(=O)O)NC(=O)[C@H](CC(C)C)NC1=O (single isomer, unassigned) [FP-0734, Ac-P-Q-S5-I-L-D-Az-H-V-R-R-V-W-R-NH2]
3 | > 5000 nM | CC[C@H](C)[C@@H]1NC(=O)[C@@](C)(NC(=O)[C@H](CCC(N)=O)NC(=O)[C@@H]2CCCN2C(C)=O)CCCC=CCOC(=O)N2CC(C(=O)N[C@@H](Cc3c[nH]cn3)C(=O)N[C@H](C(=O)N[C@@H](CCCNC(=N)N)C(=O)N[C@@H](CCCNC(=N)N)C(=O)N[C@H](C(=O)N[C@@H](Cc3c[nH]c4ccccc34)C(=O)N[C@@H](CCCNC(=N)N)C(N)=O)C(C)C)C(C)C)(C2)NC(=O)[C@H](CC(=O)O)NC(=O)[C@H](CC(C)C)NC1=O (single isomer, unassigned) [FP-0734c, Ac-P-Q-S5-I-L-D-Az-H-V-R-R-V-W-R-NH2]
4 | 200 nM | CC[C@H](C)[C@@H]1NC(=O)[C@@](C)(NC(=O)[C@H](CCC(N)=O)NC(=O)[C@@H]2CCCN2C(C)=O)CCCCCC=CCN2CC(C(=O)N[C@@H](Cc3c[nH]cn3)C(=O)N[C@H](C(=O)N[C@@H](CCCNC(=N)N)C(=O)N[C@@H](CCCNC(=N)N)C(=O)N[C@H](C(=O)N[C@@H](Cc3c[nH]c4ccccc34)C(=O)N[C@@H](CCCNC(=N)N)C(N)=O)C(C)C)C(C)C)(C2)NC(=O)[C@H](CC(=O)O)NC(=O)[C@H](CC(C)C)NC1=O (single isomer, unassigned) [FP-0738, Ac-P-Q-S7-I-L-D-Az-H-V-R-R-V-W-R-NH2]
5 | 1800 nM | CC[C@H](C)[C@@H]1NC(=O)[C@@](C)(NC(=O)[C@H](CCC(N)=O)NC(=O)[C@@H]2CCCN2C(C)=O)CCCCCC=CCOC(=O)N2CC(C(=O)N[C@@H](Cc3c[nH]cn3)C(=O)N[C@H](C(=O)N[C@@H](CCCNC(=N)N)C(=O)N[C@@H](CCCNC(=N)N)C(=O)N[C@H](C(=O)N[C@@H](Cc3c[nH]c4ccccc34)C(=O)N[C@@H](CCCNC(=N)N)C(N)=O)C(C)C)C(C)C)(C2)NC(=O)[C@H](CC(=O)O)NC(=O)[C@H](CC(C)C)NC1=O (single isomer, unassigned) [FP-0738c, Ac-P-Q-S7-I-L-D-Az-H-V-R-R-V-W-R-NH2]
6 | > 5000 nM | CC[C@H](C)[C@@H]1NC(=O)[C@@]2(NC(=O)[C@H](CCC(N)=O)NC(=O)[C@@H]3CCCN3C(C)=O)CCN(CC=CCCC[C@](C)(C(=O)N[C@@H](Cc3c[nH]cn3)C(=O)N[C@H](C(=O)N[C@@H](CCCNC(=N)N)C(=O)N[C@@H](CCCNC(=N)N)C(=O)N[C@H](C(=O)N[C@@H](Cc3c[nH]c4ccccc34)C(=O)N[C@@H](CCCNC(=N)N)C(N)=O)C(C)C)C(C)C)NC(=O)[C@H](CC(=O)O)NC(=O)[C@H](CC(C)C)NC1=O)C2 (single isomer, unassigned) [FP-0743, Ac-P-Q-PR-I-L-D-R5-H-V-R-R-V-W-R-NH2]
7 | 110 nM | CC[C@H](C)[C@@H]1NC(=O)[C@@]2(NC(=O)[C@H](CCC(N)=O)NC(=O)[C@@H]3CCCN3C(C)=O)CCN(C2)C(=O)OCC=CCCCC[C@](C)(C(=O)N[C@@H](Cc2c[nH]cn2)C(=O)N[C@H](C(=O)N[C@@H](CCCNC(=N)N)C(=O)N[C@@H](CCCNC(=N)N)C(=O)N[C@H](C(=O)N[C@@H](Cc2c[nH]c3ccccc23)C(=O)N[C@@H](CCCNC(=N)N)C(N)=O)C(C)C)C(C)C)NC(=O)[C@H](CC(=O)O)NC(=O)[C@H](CC(C)C)NC1=O (single isomer, unassigned) [FP-0745c, Ac-P-Q-PR-I-L-D-R6-H-V-R-R-V-W-R-NN2]
8 | > 5000 nM | CC[C@H](C)[C@@H]1NC(=O)[C@]2(NC(=O)[C@H](CCC(N)=O)NC(=O)[C@@H]3CCCN3C(C)=O)CCN(CC=CCCC[C@@](C)(C(=O)N[C@@H](Cc3c[nH]cn3)C(=O)N[C@H](C(=O)N[C@@H](CCCNC(=N)N)C(=O)N[C@@H](CCCNC(=N)N)C(=O)N[C@H](C(=O)N[C@@H](Cc3c[nH]c4ccccc34)C(=O)N[C@@H](CCCNC(=N)N)C(N)=O)C(C)C)C(C)C)NC(=O)[C@H](CC(=O)O)NC(=O)[C@H](CC(C)C)NC1=O)C2 (single isomer, unassigned) [FP-0751, Ac-P-Q-PS-I-L-D-S5-H-V-R-R-V-W-R-NH2]
9 | > 5000 nM | CC[C@H](C)[C@@H]1NC(=O)[C@]2(NC(=O)[C@H](CCC(N)=O)NC(=O)[C@@H]3CCCN3C(C)=O)CCN(CC=CCCCCC[C@@](C)(C(=O)N[C@@H](Cc3c[nH]cn3)C(=O)N[C@H](C(=O)N[C@@H](CCCNC(=N)N)C(=O)N[C@@H](CCCNC(=N)N)C(=O)N[C@H](C(=O)N[C@@H](Cc3c[nH]c4ccccc34)C(=O)N[C@@H](CCCNC(=N)N)C(N)=O)C(C)C)C(C)C)NC(=O)[C@H](CC(=O)O)NC(=O)[C@H](CC(C)C)NC1=O)C2 (single isomer, unassigned) [FP-0753, Ac-P-Q-PS-I-L-D-S7-H-V-R-R-V-W-R-NH2]
10 | > 5000 nM | CC[C@H](C)[C@@H]1NC(=O)[C@](C)(NC(=O)[C@H](CCC(N)=O)NC(=O)[C@@H]2CCCN2C(C)=O)CCCC=CCN2CC[C@@](C(=O)N[C@@H](Cc3c[nH]cn3)C(=O)N[C@H](C(=O)N[C@@H](CCCNC(=N)N)C(=O)N[C@@H](CCCNC(=N)N)C(=O)N[C@H](C(=O)N[C@@H](Cc3c[nH]c4ccccc34)C(=O)N[C@@H](CCCNC(=N)N)C(N)=O)C(C)C)C(C)C)(C2)NC(=O)[C@H](CC(=O)O)NC(=O)[C@H](CC(C)C)NC1=O (single isomer, unassigned) [FP-0758, Ac-P-Q-R5-I-L-D-PS-H-V-R-R-V-W-R-NH2]
11 | 110 nM | CC[C@H](C)[C@@H]1NC(=O)[C@](C)(NC(=O)[C@H](CCC(N)=O)NC(=O)[C@@H]2CCCN2C(C)=O)CCCCC=CCOC(=O)N2CC[C@](C(=O)N[C@@H](Cc3c[nH]cn3)C(=O)N[C@H](C(=O)N[C@@H](CCCNC(=N)N)C(=O)N[C@@H](CCCNC(=N)N)C(=O)N[C@H](C(=O)N[C@@H](Cc3c[nH]c4ccccc34)C(=O)N[C@@H](CCCNC(=N)N)C(N)=O)C(C)C)C(C)C)(C2)NC(=O)[C@H](CC(=O)O)NC(=O)[C@H](CC(C)C)NC1=O (single isomer, unassigned) [FP-0767c, Ac-P-Q-R6-I-L-D-PR-H-V-R-R-V-W-R-NH2]
12 | > 5000 nM | CC[C@H](C)[C@@H]1NC(=O)[C@](C)(NC(=O)[C@H](CCC(N)=O)NC(=O)[C@@H]2CCCN2C(C)=O)CCCCCC=CCN2CC[C@](C(=O)N[C@@H](Cc3c[nH]cn3)C(=O)N[C@H](C(=O)N[C@@H](CCCNC(=N)N)C(=O)N[C@@H](CCCNC(=N)N)C(=O)N[C@H](C(=O)N[C@@H](Cc3c[nH]c4ccccc34)C(=O)N[C@@H](CCCNC(=N)N)C(N)=O)C(C)C)C(C)C)(C2)NC(=O)[C@H](CC(=O)O)NC(=O)[C@H](CC(C)C)NC1=O (single isomer, unassigned) [FP-0768, Ac-P-Q-R7-I-L-D-PR-H-V-R-R-V-W-R-NH2]
